Measurements as given in the supplement of paper PMC11616607.

What follows are compounds tested on OVCAR8 (assay: drug sensitivity score (DSS) from 5-point dose-response viability curve (DSS (area-under-curve based score)); higher = more sensitive (stronger growth inhibition or killing); extreme values may be limits of the assay). Conditions: exposure time: 72 h; concentration range: 5 concentrations over 10,000-fold range.
Method in brief: (§1)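 Ovarian cancer and normal ovarian cell lines were tested in 384-well plates. Drugs were acoustically dispensed (Echo 550) in DMSO or water at five concentrations spanning a 10,000-fold range, then 1,500 cells per well were added and incubated 3 days at 37°C, 5% CO2. Viability was read by CellTiter-Glo luminescence on a PHERAstar FS. Drug sensitivity score was derived per cell line and drug with Breeze software; higher means more sensitive, zero means no response.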

SMILES | drug sensitivity score
Cn1ncc(Cl)c1-c1cc(C(=O)N[C@H](CN)Cc2cccc(F)c2)sc1Cl [Afuresertib] | 0.5
COc1cccc2c1C(=O)c1c(O)c3c(c(O)c1C2=O)C[C@@](O)(/C(CO)=N/NC(=O)CCCCCN1C(=O)C=CC1=O)C[C@@H]3O[C@H]1C[C@H](N)[C@H](O)[C@H](C)O1 [Aldoxorubicin] | 10
CCc1cc2c(cc1N1CCC(N3CCOCC3)CC1)C(C)(C)c1[nH]c3cc(C#N)ccc3c1C2=O [Alectinib] | 0.4
COc1cc(Nc2ncc3c(n2)-c2ccc(Cl)cc2C(c2c(F)cccc2OC)=NC3)ccc1C(=O)O [Alisertib] | 9.4
Oc1ncnc2[nH]ncc12 [Allopurinol] | 0
Cc1nc(NC(=O)N2CCC[C@H]2C(N)=O)sc1-c1ccnc(C(C)(C)C(F)(F)F)c1 [Alpelisib] | 0.3
O=C(Nc1cc(Oc2cc(F)c(NC(=O)C3(C(=O)Nc4ccc(F)cc4)CC3)cc2F)ccn1)C1CC1 [Altiratinib] | 6
CN1CC[C@H](c2c(O)cc(O)c3c(=O)cc(-c4ccccc4Cl)oc23)[C@H](O)C1 [Alvocidib] | 17.8
CCN(CC)CCNC(=O)c1c(C)[nH]c(/C=C2\C(=O)Nc3ccc(-c4csc(-c5ccccc5)n4)cc32)c1C [Amcasertib] | 0.6
CCC1(c2ccc(N)cc2)CCC(=O)NC1=O (configuration not stated) [Aminoglutethimide] | 0
COc1cc(NS(C)(=O)=O)ccc1Nc1c2ccccc2nc2ccccc12 [Amsacrine] | 10
S=C(NCc1ccc2c(c1)OCO2)N1CCN(c2ncnc3c2oc2ccccc23)CC1 [Amuvatinib] | 7.9
O=C1CN2Cc3c(ccc(Cl)c3Cl)N=C2N1 [Anagrelide] | 0
CC(C)(C#N)c1cc(Cn2cncn2)cc(C(C)(C)C#N)c1 [Anastrozole] | 0

These compounds were tested on Ovsaho in the same assay as above. Conditions: exposure time: 72 h; concentration range: 5 concentrations over 10,000-fold range.
Method in brief: as §1

SMILES | drug sensitivity score
COc1cc(CCc2cc(NC(=O)c3ccc(N4CC(C)NC(C)C4)cc3)n[nH]2)cc(OC)c1 (configuration not stated) [AZD4547] | 0
CN(C)C(=O)c1ccc(S(=O)(=O)c2ccc(NC(=O)[C@@](C)(O)C(F)(F)F)c(Cl)c2)cc1 [AZD7545] | 0
NC(=O)Nc1cc(-c2cccc(F)c2)sc1C(=O)N[C@H]1CCCNC1 [AZD7762] | 4
COc1ccc(-c2ccc3c(N4CCOC[C@@H]4C)nc(N4CCOC[C@@H]4C)nc3n2)cc1CO [AZD8055] | 16.9
N#Cc1ccc2[nH]c(O)c(-c3ccc(CN4CCOCC4)cn3)c2c1 [AZD-1080] | 0
Cc1ncc(-c2ccnc(Nc3ccc(S(C)(=O)=O)cc3)n2)n1C(C)C [AZD-5438] | 8.1
Cc1cc([C@@H](C)Nc2ccccc2C(=O)O)c2nc(N3CCOCC3)cc(=O)n2c1 [AZD-6482] | 7.6
C[C@@H](Nc1cc(F)cc(F)c1)c1cc(C(=O)N(C)C)cc2c(=O)cc(N3CCOCC3)oc12 [AZD-8186] | 6.3
CCN1CCN(Cc2ccc(Nc3ncc(F)c(-c4cc(F)c5nc(C)n(C(C)C)c5c4)n3)nc2)CC1 [Abemaciclib] | 3.2
CN(C)Cc1c(C(=O)NCCOc2ccc(C(=O)NO)cc2)oc2ccccc12 [Abexinostat] | 10
C[C@]12CC[C@H](O)CC1=CC[C@@H]1[C@@H]2CC[C@]2(C)C(c3cccnc3)=CC[C@@H]12 [Abiraterone] | 0
CC#CC(=O)N1CCC[C@H]1c1nc(-c2ccc(C(=O)Nc3ccccn3)cc2)c2c(N)nccn12 [Acalabrutinib] | 1
COc1cc(C)c(/C=C/C(C)=C/C=C/C(C)=C/C(=O)O)c(C)c1C [Acitretin] | 0
CN(C)C/C=C/C(=O)Nc1cc2c(Nc3ccc(F)c(Cl)c3)ncnc2cc1O[C@H]1CCOC1 [Afatinib] | 3.2
Cn1ncc(Cl)c1-c1cc(C(=O)N[C@H](CN)Cc2cccc(F)c2)sc1Cl [Afuresertib] | 1.5
COc1cccc2c1C(=O)c1c(O)c3c(c(O)c1C2=O)C[C@@](O)(/C(CO)=N/NC(=O)CCCCCN1C(=O)C=CC1=O)C[C@@H]3O[C@H]1C[C@H](N)[C@H](O)[C@H](C)O1 [Aldoxorubicin] | 8.3
CCc1cc2c(cc1N1CCC(N3CCOCC3)CC1)C(C)(C)c1[nH]c3cc(C#N)ccc3c1C2=O [Alectinib] | 0
COc1cc(Nc2ncc3c(n2)-c2ccc(Cl)cc2C(c2c(F)cccc2OC)=NC3)ccc1C(=O)O [Alisertib] | 3.1
Oc1ncnc2[nH]ncc12 [Allopurinol] | 0
Cc1nc(NC(=O)N2CCC[C@H]2C(N)=O)sc1-c1ccnc(C(C)(C)C(F)(F)F)c1 [Alpelisib] | 0.4
O=C(Nc1cc(Oc2cc(F)c(NC(=O)C3(C(=O)Nc4ccc(F)cc4)CC3)cc2F)ccn1)C1CC1 [Altiratinib] | 3.6
CN1CC[C@H](c2c(O)cc(O)c3c(=O)cc(-c4ccccc4Cl)oc23)[C@H](O)C1 [Alvocidib] | 15.9
CCN(CC)CCNC(=O)c1c(C)[nH]c(/C=C2\C(=O)Nc3ccc(-c4csc(-c5ccccc5)n4)cc32)c1C [Amcasertib] | 0
CCC1(c2ccc(N)cc2)CCC(=O)NC1=O (configuration not stated) [Aminoglutethimide] | 0
COc1cc(NS(C)(=O)=O)ccc1Nc1c2ccccc2nc2ccccc12 [Amsacrine] | 5.5
S=C(NCc1ccc2c(c1)OCO2)N1CCN(c2ncnc3c2oc2ccccc23)CC1 [Amuvatinib] | 0.1
O=C1CN2Cc3c(ccc(Cl)c3Cl)N=C2N1 [Anagrelide] | 0
CC(C)(C#N)c1cc(Cn2cncn2)cc(C(C)(C)C#N)c1 [Anastrozole] | 0
